Measurements from patent US7557066B2, “Use of sulfonylureas” (Bayer CropScience AG, priority 2004, dated 2009).

How the values were obtained:
CIRAR = assay: Inhibition of revegetation of perennial plants; assay type: in vivo; settings: 600 g of a.i./ha; cut four weeks after application, scored after a further four weeks; 100% = total inhibition
From the text: (§1) […] Four weeks after the application, the above-ground parts of the plants were cut off. After a further four weeks, the inhibition of revegetation was scored in percent of the control, 100% corresponding to a total inhibition of revegetation.

LOLPE = assay: Inhibition of revegetation of perennial plants; assay type: in vivo; settings: 600 g of a.i./ha; cut four weeks after application, scored after a further four weeks; 100% = total inhibition
From the text: as §1

soybeans (Glycine max.) = assay: Crop plant compatibility (greenhouse, visual scoring); assay type: in vivo; settings: for damage to crops of leguminous plants, such as soybeans: pre-emergence or post-emergence method, various dosages, visual scoring four to five weeks after application
Experimental: In further greenhouse experiments, seeds of a substantial number of crop plants and weeds were placed into sandy loam soil and covered with soil. Some of the pots were treated immediately as described under Section 1, and the remaining pots were placed in a greenhouse until the plants had developed two to three true leaves and then sprayed with various dosages of the compounds of the formula (I) or salts thereof, as described in Section 2.

[1] = tested on: monocotyledonous and dicotyledonous weeds; assay: Post-emergence effect on weeds (greenhouse, visual scoring); assay type: in vivo, weed grasses and broad-leaved weeds; settings: 100 g or less of active substance per hectare; against Sinapsis alba, Echinochloa crus-galli, Lolium multiflorum, Chrysanthemum segetum, Setaria viridis, Abutilon theophrasti, Amaranthus retroflexus, Panicum miliaceum, Brachiaria plantaginea, Solanum nigrum, Euphorbia heterophylla, Sorghum halepense, Avena sativa; scored after about 3 to 4 weeks
Experimental: (§2) Seeds or rhizome pieces of monocotyledonous and dicotyledonous weeds were placed in a sandy loam soil in plastic pots, covered with soil and cultivated in a greenhouse under good growth conditions. Three weeks after sowing, the test plants were treated at the three-leaf stage. The compounds of the formula (I) or their salts, formulated as wettable powders or as emulsion concentrates, were sprayed, at various dosages, onto the green parts of the plants at an application rate of 600 to 800 l of water/ha (converted). After the test plants had remained in the greenhouse for about 3 to 4 weeks under optimum growth conditions, the effect of the preparations was scored visually by comparison with untreated controls. The tested compounds also have good herbicidal post-emergence activity against a broad spectrum of economically important weed grasses and broad-leaved weeds. […] Crop Plant Compatibility

[2] = tested on: monocotyledonous and dicotyledonous weed plants; assay: Pre-emergence effect on weeds (greenhouse, visual scoring); assay type: in vivo, weed grasses and broad-leaved weeds; settings: 100 g or less of active substance per hectare; against Sinapsis alba, Chrysanthemum segetum, Avena sativa, Stellaria media, Echinochloa crus-galli, Lolium multiflorum, Setaria viridis, Abutilon theophrasti, Amaranthus retroflexus, Brachiaria plantaginea, Solanum nigrum, Euphorbia heterophylla, Sorghum halepense, Panicum miliaceum; scored after 3 to 4 weeks
From the text: Seeds or rhizome pieces of monocotyledonous and dicotyledonous weed plants were placed in sandy loam soil in cardboard pots and covered with soil. The compounds of the formula (I) or their salts, formulated in the form of wettable powders or emulsion concentrates, were then applied to the surface of the soil cover in the form of aqueous suspensions or emulsions at an application rate of 600 to 800 l of water/ha (converted) in various dosages.
After the treatment, the pots were placed in a greenhouse and kept under good growth conditions for the weeds. After the test plants had emerged, the damage to the plants or the negative effect on the emergence was scored visually after a test period of 3 to 4 weeks by comparison with untreated controls. As shown by the test results, the compounds tested have good herbicidal pre-emergence activity against a broad spectrum of weed grasses and broad-leaved weeds. […] Post-Emergence Effect on Weeds

Solanum nigrum = assay: Post-emergence effect on weeds; assay type: in vivo; settings: 30 g of active substance per hectare
Experimental: as §2

Brachiaria plantaginea = assay: Post-emergence effect on weeds; assay type: in vivo; settings: 30 g of active substance per hectare
Experimental: as §2

Amaranthus retroflexus = assay: Post-emergence effect on weeds; assay type: in vivo; settings: 30 g of active substance per hectare
Experimental: as §2

Setaria viridis = assay: Post-emergence effect on weeds; assay type: in vivo; settings: 30 g of active substance per hectare
Experimental: as §2

Echinochloa crus-galli = assay: Post-emergence effect on weeds; assay type: in vivo; settings: 30 g of active substance per hectare
Experimental: as §2

Structure (SMILES) | damage to crops of leguminous plants, such as soybeans (soybeans (Glycine max.)) | herbicidal action by the post-emergence method [1] | herbicidal action in the pre-emergence method [2] | also measured
O=C(O)CNCP(=O)(O)O [Glyphosate] | – | – | – | inhibition of revegetation, CIRAR (CIRAR): 25%; inhibition of revegetation, LOLPE (LOLPE): 35%
CCOc1cc(OC)nc(NC(=O)NS(=O)(=O)c2ncccc2C2=NOCCO2)n1 [I-1] | did not damage | very good herbicidal action | very good herbicidal action | –
COc1cc(C)nc(NC(=O)[N-]S(=O)(=O)c2ncccc2C2=NOCCO2)n1.[Na+] [I-3] | did not damage | very good herbicidal action | very good herbicidal action | –
COc1cc(N(C)C)nc(NC(=O)NS(=O)(=O)c2ncccc2C2=NOCCO2)n1 [I-8] | did not damage | very good herbicidal action | very good herbicidal action | –
COc1cc(Cl)nc(NC(=O)NS(=O)(=O)c2ncccc2C2=NOCCO2)n1 [I-9] | did not damage | very good herbicidal action | very good herbicidal action | herbicidal activity against Solarium nigrum (Solanum nigrum): 100%; herbicidal activity against Brachiaria plantaginea (Brachiaria plantaginea): 100%; herbicidal activity against Amaranthus retroflexus (Amaranthus retroflexus): 93%; herbicidal activity against Setaria viridis (Setaria viridis): 100%; herbicidal activity against Echinochloa crus-galli (Echinochloa crus-galli): 100%; damage to soybeans (Glycine max.) (soybeans (Glycine max.); 8 g of active substance per hectare): 0%
COc1cc(Cl)nc(NC(=O)[N-]S(=O)(=O)c2ncccc2C2=NOCCO2)n1.[Na+] [I-10] | did not damage | very good herbicidal action | very good herbicidal action | –
COc1cc(OC)nc(NC(=O)NS(=O)(=O)c2ncccc2C2=NOCCO2)n1 [I-11] | did not damage | very good herbicidal action | very good herbicidal action | –
COc1cc(OC)nc(NC(=O)[N-]S(=O)(=O)c2ncccc2C2=NOCCO2)n1.[Na+] [I-12] | did not damage | very good herbicidal action | very good herbicidal action | –
CCOc1cc(OCC)nc(NC(=O)[N-]S(=O)(=O)c2ncccc2C2=NOCCO2)n1.[Na+] [I-14] | did not damage | very good herbicidal action | very good herbicidal action | –
CCOc1cc(Cl)nc(NC(=O)NS(=O)(=O)c2ncccc2C2=NOCCO2)n1 [I-21] | did not damage | very good herbicidal action | very good herbicidal action | –
CCOc1cc(Cl)nc(NC(=O)[N-]S(=O)(=O)c2ncccc2C2=NOCCO2)n1.[Na+] [I-22] | did not damage | very good herbicidal action | very good herbicidal action | –
Cc1cc(C)nc(NC(=O)NS(=O)(=O)c2ncccc2C2=NOCCO2)n1 [I-23] | did not damage | very good herbicidal action | very good herbicidal action | –
Cc1cc(Cl)nc(NC(=O)NS(=O)(=O)c2ncccc2C2=NOCCO2)n1 [I-29] | did not damage | very good herbicidal action | very good herbicidal action | –
Cc1cc(Cl)nc(NC(=O)[N-]S(=O)(=O)c2ncccc2C2=NOCCO2)n1.[Na+] [I-30] | did not damage | very good herbicidal action | very good herbicidal action | –
COc1nc(NC(=O)NS(=O)(=O)c2ncccc2C2=NOCCO2)nc(OC)n1 [I-51] | did not damage | very good herbicidal action | very good herbicidal action | –
COc1nc(NC(=O)[N-]S(=O)(=O)c2ncccc2C2=NOCCO2)nc(OC)n1.[Na+] [I-52] | did not damage | very good herbicidal action | very good herbicidal action | –
COc1nc(NC(=O)[N-]S(=O)(=O)c2ncccc2C2=NOCCO2)nc(N(C)C)n1.[Na+] [I-60] | did not damage | very good herbicidal action | very good herbicidal action | –
CCOc1nc(Cl)nc(NC(=O)[N-]S(=O)(=O)c2ncccc2C2=NOCCO2)n1.[Na+] [I-70] | did not damage | very good herbicidal action | very good herbicidal action | –
CN(C)c1nc(NC(=O)NS(=O)(=O)c2ncccc2C2=NOCCO2)nc(OCC(F)(F)F)n1 [I-142] | did not damage | very good herbicidal action | very good herbicidal action | –
O=C(Nc1nc(Cl)cc(OCC(F)(F)F)n1)NS(=O)(=O)c1ncccc1C1=NOCCO1 [I-143] | did not damage | very good herbicidal action | very good herbicidal action | –
O=C([N-]S(=O)(=O)c1ncccc1C1=NOCCO1)Nc1nc(Cl)cc(OCC(F)(F)F)n1.[Na+] [I-145] | did not damage | very good herbicidal action | very good herbicidal action | –
